Reference: US12233060B2, “Inhibitors of Ataxia-Telangiectasia Mutated and Rad3-related protein kinase (ATR) for use in methods of treating cancer” (THE INSTITUTE OF CANCER RESEARCH: ROYAL CANCER HOSPITAL, priority 2016, dated 2025)

Assays:
Assay type in all cases: cell-based, human
HCT116 cells = experiment: VX-970 dose response after siRNA silencing of BAF components; settings: HCT116, 5 days exposure; p<0.0001 ANOVA
Description: FIG. 6. BAF complex deficiency causes sensitivity to ATR inhibition. A. Schematic of BAF complex composition in human cells. B. VX-970 dose response curves from HCT116 cells transfected with siRNA targeting ARID1B or SMARCA4. 48 hours after transfection cells were exposed to VX-970 for 5 days. Error bars represent SD from triplicate experiments. p<0.0001, ANOVA for siARID1B and siSMARCA4 vs. siCON. C. Western blots illustrating ARID1B and SMARCA4 silencing in experiment (B). D. VX-970 dose response curves from four OCCC cell lines, 3 SMARCA4 wildtype (blue; RMG1, KK and ES2) and 1 SMARCA4 mutant (red; TOV112D). E. Bar chart illustrating surviving fraction after five days VX-970 exposure in HCC1143 and He1a cells transfected with siRNA targeting either SMARCA4 or ARID1A *p<0.05 by Student's t-test compared to siCon. F. Western blot illustrating level of chromatin bound TOP2A in HCT116 cells transfected siRNA targeting ARID1A, ARID1B or SMARCA4. Cells were analysed 48 hours after transfection. G. A model for the proposed mechanism driving the sensitivity of ARID1A-deficient cells to ATRi. […]
Short-term survival assays were performed in 384-well plates. […] Drug was added 24 h after seeding and cells were continuously exposed to the drug for five days, after which cell viability was estimated using CellTitre-Glo luminescence (Promega). […] Colonies were counted manually. […]

[1] = tested on: HCT116 ARID1A+/+ and ARID1A−/− cells; experiment: γH2AX western blot; settings: VX-970 0.5 uM; ARID1A−/− vs ARID1A+/+
Description: (§1) FIG. 5. ATRi effect on cell cycle progression, chromosomal instability, DNA damage and apoptosis. A. Barchart illustrating G2/M fraction in HCT116 ARID1A^+/+ and ARID1A^−/− cells synchronized in G1/early S phase by double thymidine block and released into fresh media containing DMSO or VX-970 (500 nM). The percentage of cells in G2/M was measured by FACS following PI staining. […] Cells were stained with DAPI. A minimum of 50 anaphases were scored in 3 biological replicate experiments. *p=0.023, Student's t-test. C. Bar chart illustrating frequency of anaphase bridges in TOV21G cells exposed to VX-970 (0.5 uM) or DMSO for 8 hours prior to fixation. Experiment performed as for (B). p=0.006 Student's t-test. D. Mitotic spread images from HCT116 ARID1A^+/+ and ARID1A^−/− cells following exposure to either DMSO or VX-970 (1 uM). Scale bar represents 20 um. E. Bar chart illustrating extent of chromosomal abnormalities in HCT116 ARID1A^+/+ and ARID1A^−/− cells exposed to VX-970 (1 uM). *p<0.05, Student's t-test. F. Western blot illustrating γH2AX in HCT116 ARID1A^+/+ and ARID1A^−/− cells exposed to VX-970 (0.5 uM) for the indicated time prior to cell lyses. G. Bar chart illustrating apoptotic fraction in cells exposed to increasing concentrations of VX-970 for 24 hours. Experiment as per FIG. 3I. H. Western blot illustrating PARP cleavage in HCT116 ARID1A^+/+ and ARID1A^−/− cells exposed to VX-970. […]

[2] = tested on: HCT116 ARID1A+/+ and ARID1A−/− cells; experiment: Cell cycle analysis of synchronized cells (G2/M fraction, FACS); settings: double thymidine block, release into VX-970 (500 nM)
Description: as §1, with “t-test.” for “t-test. F. Western blot illustrating γH2AX in HCT116 ARID1A^+/+ and ARID1A^−/− cells exposed to VX-970 (0.5 uM) for the indicated time prior to cell lyses. G. Bar chart illustrating apoptotic fraction in cells exposed to increasing concentrations of VX-970 for 24 hours. Experiment as per FIG. 3I. H. Western blot illustrating PARP cleavage in HCT116 ARID1A^+/+ and ARID1A^−/− cells exposed to VX-970.”
Cells were plated at a density of 2×10^5 cells per well of a six-well plate and incubated for 24 hours after which ATRi or 0.1% DMSO was added for the indicated period of time. […] Samples were analyzed on a BD LSR II flow cytometer using BD FACSDiva software (BD Biosciences). […]

CNCc1ccc(-c2cc(-c3nc(-c4ccc(S(=O)(=O)C(C)C)cc4)cnc3N)on2)cc1 [VX-970, 5-[4-(Isopropylsulfonyl)phenyl]-3-(3-{4-[(methylamino)methyl]phenyl}-1,2-oxazol-5-yl)-2-pyrazinamine]
VX-970 sensitivity after silencing of SMARCA4, ARID1B or SMARCB1 (HCT116 cells): enhanced sensitivity
γH2AX induction [1]: more pronounced
G2/M delay in ARID1A−/− cells [2]: abrogated the G2/M delay
